Reference: patent publication US12195476B2, “Synthesis method of furoimidazopyridine compound, crystal form of furoimidazopyridine compound, and crystal form of salt thereof” (HANGZHOU HIGHLIGHTLL PHARMACEUTICAL CO., LTD, priority 2019, dated 2025)
≈ marks a conversion by molar mass, not a printed value. Structures can show the parent of a compound that is named as a salt. Where two headings read alike, the source gives them in different places. Each block holds one compound with its values, some of them ahead of it.

Legend:
Type in all cases: physicochemical
[1] = Solubility test in water, SGF, FaSSIF and FeSSIF (37° C., HPLC); conditions: for solubility at 30 min / solubility at 2 h / solubility at 4 h / solubility at 24 h: 37 °C, thermodynamic from solid, read-out: Solubility (based on a compound of formula I); for solubility at 30 min / solubility at 2 h / solubility at 4 h / solubility at 24 h / Solubility (based on a compound of formula I): 37° C.; for difference in the equilibrium solubilities (24 h) between crystal form 1 and crystal form D: FaSSIF and FeSSIF, result in words
Protocol: 4 samples, each of crystal form 1 of a compound of formula I and crystal form D of a phosphate of a compound of formula I each with appropriate amount were weighed and placed into a 4 mL transparent glass bottle respectively, 1 mL of water, simulated gastric fluid (SGF), fasted-state simulated intestinal fluid (FaSSIF) and fed-state simulated intestinal fluid (FeSSIF) were added respectively, sample suspension was obtained and quickly placed on a shaker (37° C., 200 rpm) and the shaker was shaked, the samples were observed 5 minutes later, a quantity of samples or medium were supplemented to obtain mild suspension, samples were taken at 30 minutes, 2 hours, 4 hours and 24 hours, respectively, centrifuged for 10 minutes at 12000 rpm, the supernatants were collected, diluted appropriately and then were tested by a higher performance liquid chromatography.
The sample concentrations were calculated with an external standard method.

[2] = Dynamic vapor sorption (DVS) hygroscopicity test; conditions: for Hygroscopicity: weight gain by moisture absorption: 0% RH-95% RH, 25° C.; for change of crystal form before and after the DVS test: result in words
Protocol: (§1) DSC, TGA and DVS tests were conducted for crystal form A of a hydrochloride of a compound of formula I, crystal form B of a sulfate of a compound of formula I, crystal form C of a hydrobromide of a compound of formula I and crystal form D of a phosphate of a compound of formula I.

[3] = Stability test at high temperature and in accelerated conditions (HPLC purity, XRPD, DSC); conditions: for Stability study: Crystal form: 2 weeks (XRPD); for 2-week physical and chemical stabilities: high temperature (60° C.) and accelerated conditions (40° C./75% RH), result in words
Protocol: About 1 mg of crystal form 1 of a compound of formula I and 1 mg of crystal form D of a phosphate of a compound of formula I samples were weighed and each was placed into a 40 mL transparent glass bottle, the samples were placed in a stability chamber in accelerated conditions (40° C./75% RH, open) and at a high temperature (60° C., sealed) respectively. For the open samples, the bottle cap was removed and the bottle neck was covered with aluminium-foil paper stabbed with pinholes to avoid cross contamination; for the closed samples, each bottle was covered with a cap and sealed tightly. Samples were taken at week 1 and week 2, respectively, after diluted with diluent (acetonitrile/water (1/1) (v/v), the liquid phases were injected according to the chromatographic conditions in Table 12 to determine sample purities.
The sample purities were calculated with an area normalization method.

[4] = DSC test of salt crystal forms (thermostability); conditions: single and higher melting points, result in words
Protocol: as §1

- solubility at 30 min ([1]; fasted-state simulated intestinal fluid (FaSSIF), fassif, Fasted-state simulated intestinal fluid (FaSSIF), 30 min): 170 µg/mL (≈ 521 µM)
- solubility at 2 h ([1]; fasted-state simulated intestinal fluid (FaSSIF), fassif, Fasted-state simulated intestinal fluid (FaSSIF), 2 h): 170 µg/mL (≈ 521 µM)
- solubility at 4 h ([1]; fasted-state simulated intestinal fluid (FaSSIF), fassif, Fasted-state simulated intestinal fluid (FaSSIF), 4 h): 170 µg/mL (≈ 521 µM)
- solubility at 24 h ([1]; fasted-state simulated intestinal fluid (FaSSIF), fassif, Fasted-state simulated intestinal fluid (FaSSIF), 24 h): 160 µg/mL (≈ 490 µM)
- solubility at 30 min ([1]; fed-state simulated intestinal fluid (FeSSIF), fessif, Fed-state simulated intestinal fluid (FeSSIF), 30 min): 260 µg/mL (≈ 797 µM)
- solubility at 2 h ([1]; fed-state simulated intestinal fluid (FeSSIF), fessif, Fed-state simulated intestinal fluid (FeSSIF), 2 h): 230 µg/mL (≈ 705 µM)
- solubility at 4 h ([1]; fed-state simulated intestinal fluid (FeSSIF), fessif, Fed-state simulated intestinal fluid (FeSSIF), 4 h): 220 µg/mL (≈ 674 µM)
- solubility at 24 h ([1]; fed-state simulated intestinal fluid (FeSSIF), fessif, Fed-state simulated intestinal fluid (FeSSIF), 24 h): 240 µg/mL (≈ 735 µM)
- solubility at 30 min ([1]; simulated gastric fluid (SGF), simulated gastric fluid, Simulated gastric fluid (SGF), 30 min): 30200 µg/mL (≈ 92600 µM)
- solubility at 2 h ([1]; simulated gastric fluid (SGF), simulated gastric fluid, Simulated gastric fluid (SGF), 2 h): 29700 µg/mL (≈ 91100 µM)
- solubility at 4 h ([1]; simulated gastric fluid (SGF), simulated gastric fluid, Simulated gastric fluid (SGF), 4 h): 29500 µg/mL (≈ 90300 µM)
- solubility at 24 h ([1]; simulated gastric fluid (SGF), simulated gastric fluid, Simulated gastric fluid (SGF), 24 h (equilibrium)): 30200 µg/mL (≈ 92500 µM)
SMILES: C[C@@H](O)c1nc2cnc3ccoc3c2n1[C@H]1CC[C@H](CC#N)OC1 [2-[(2R,5S)-5-[2-[(R)-1-hydroxyethyl]furo[3,2-b]imidazo[4,5-d]pyridin-1-yl]tetrahydropyran-2-yl]acetonitrile]

- Hygroscopicity: weight gain by moisture absorption ([2]; DVS): 5.2%
- Hygroscopicity: weight gain by moisture absorption ([2]; DVS, listed as crystal form 1 of a compound of formula I): 5.2%
- water remaining after desorption ([2]; DVS, desorption 95% RH to 0% RH): 2%
- Stability study (purity) ([3]; 0 day): 98.74 Area %
- Stability study (purity) ([3]; 40° C./75% RH, open, 1 week): 98.71 Area %
- Stability study (purity) ([3]; 40° C./75% RH, open, 2 weeks): 98.77 Area %
- Stability study: Crystal form ([3]; 40° C./75% RH, open): Unchanged
- Stability study (purity) ([3]; 60° C., sealed, 1 week): 98.73 Area %
- Stability study (purity) ([3]; 60° C., sealed, 2 weeks): 98.74 Area %
- Stability study: Crystal form ([3]; 60° C., sealed): Unchanged
- 2-week physical and chemical stabilities [3]: good
- difference in the equilibrium solubilities (24 h) between crystal form 1 and crystal form D [1]: no obvious difference
- Solubility (based on a compound of formula I) ([1]; Fasted-state simulated intestinal fluid (FaSSIF), 30 min): 170 µg/mL
- Solubility (based on a compound of formula I) ([1]; Fasted-state simulated intestinal fluid (FaSSIF), 2 h, listed as Crytstal form 1 of a compound of formula I): 190 µg/mL
- Solubility (based on a compound of formula I) ([1]; Fasted-state simulated intestinal fluid (FaSSIF), 4 h, listed as Crytstal form 1 of a compound of formula I): 160 µg/mL
- Solubility (based on a compound of formula I) ([1]; Fasted-state simulated intestinal fluid (FaSSIF), 24 h, listed as Crytstal form 1 of a compound of formula I): 170 µg/mL
- Solubility (based on a compound of formula I) ([1]; Simulated gastric fluid (SGF), 30 min, listed as Crytstal form 1 of a compound of formula I): 16520 µg/mL
- Solubility (based on a compound of formula I) ([1]; Simulated gastric fluid (SGF), 2 h, listed as Crytstal form 1 of a compound of formula I): 16710 µg/mL
- Solubility (based on a compound of formula I) ([1]; Simulated gastric fluid (SGF), 4 h, listed as Crytstal form 1 of a compound of formula I): 16880 µg/mL
- Solubility (based on a compound of formula I) ([1]; Simulated gastric fluid (SGF), 24 h (equilibrium), listed as Crytstal form 1 of a compound of formula I): 16420 µg/mL
- Solubility (based on a compound of formula I) ([1]; Water, 30 min, listed as Crytstal form 1 of a compound of formula I): 160 µg/mL
- Solubility (based on a compound of formula I) ([1]; Water, 2 h, listed as Crytstal form 1 of a compound of formula I): 180 µg/mL
- Solubility (based on a compound of formula I) ([1]; Water, 4 h, listed as Crytstal form 1 of a compound of formula I): 160 µg/mL
- Solubility (based on a compound of formula I) ([1]; Water, 24 h (equilibrium), listed as Crytstal form 1 of a compound of formula I): 180 µg/mL
SMILES: C[C@@H](O)c1nc2cnc3ccoc3c2n1[C@H]1CC[C@H](CC#N)OC1 [Crystal form 1 of a compound of formula I] [2-[(2R,5S)-5-[2-[(R)-1-hydroxyethyl]furo[3,2-b]imidazo[4,5-d]pyridin-1-yl]tetrahydropyran-2-yl]acetonitrile]

- Hygroscopicity: weight gain by moisture absorption ([2]; DVS): 4.7%
- Hygroscopicity: weight gain by moisture absorption ([2]; DVS, listed as crystal form D of a phosphate of a compound of formula I): 4.7%
- change of crystal form before and after the DVS test [2]: no significant changes
- Stability study (purity) ([3]; 0 day): 99.13 Area %
- Stability study (purity) ([3]; 40° C./75% RH, open, 1 week): 99.11 Area %
- Stability study (purity) ([3]; 40° C./75% RH, open, 2 weeks): 99.10 Area %
- Stability study: Crystal form ([3]; 40° C./75% RH, open): Unchanged
- Stability study (purity) ([3]; 60° C., sealed, 1 week): 99.11 Area %
- Stability study (purity) ([3]; 60° C., sealed, 2 weeks): 99.11 Area %
- Stability study: Crystal form ([3]; 60° C., sealed): Unchanged
- 2-week physical and chemical stabilities [3]: good
- thermostability of the crystal form [4]: relatively good
- difference in the equilibrium solubilities (24 h) between crystal form 1 and crystal form D [1]: no obvious difference
- Solubility (based on a compound of formula I) ([1]; Fed-state simulated intestinal fluid (FeSSIF), 30 min): 360 µg/mL
- Solubility (based on a compound of formula I) ([1]; Fed-state simulated intestinal fluid (FeSSIF), 2 h): 220 µg/mL
- Solubility (based on a compound of formula I) ([1]; Fed-state simulated intestinal fluid (FeSSIF), 4 h): 190 µg/mL
- Solubility (based on a compound of formula I) ([1]; Fed-state simulated intestinal fluid (FeSSIF), 24 h): 210 µg/mL
- equilibrium solubility (24 h) relative to crystal form 1 of a compound of formula I ([1]; SGF): 2 times
- Solubility (based on a compound of formula I) ([1]; Water, 30 min): 1850 µg/mL
- Solubility (based on a compound of formula I) ([1]; Water, 2 h): 1780 µg/mL
- Solubility (based on a compound of formula I) ([1]; Water, 4 h): 1730 µg/mL
- Solubility (based on a compound of formula I) ([1]; Water, 24 h (equilibrium)): 1800 µg/mL
- equilibrium solubility (24 h) relative to crystal form 1 of a compound of formula I ([1]; water): 10 times
SMILES: C[C@@H](O)c1nc2cnc3ccoc3c2n1[C@H]1CC[C@H](CC#N)OC1 [Crystal form D of a phosphate of a compound of formula I] [2-[(2R,5S)-5-[2-[(R)-1-hydroxyethyl]furo[3,2-b]imidazo[4,5-d]pyridin-1-yl]tetrahydropyran-2-yl]acetonitrile]

- Hygroscopicity: weight gain by moisture absorption ([2]; DVS): 9.4%
- Hygroscopicity: weight gain by moisture absorption ([2]; DVS, listed as crystal form B of a sulfate of a compound of formula I): 9.4%
- change of crystal form before and after the DVS test [2]: no significant changes
- thermostability of the crystal form [4]: relatively good
SMILES: C[C@@H](O)c1nc2cnc3ccoc3c2n1[C@H]1CC[C@H](CC#N)OC1 [Crystal form B of a sulfate of a compound of formula I] [2-[(2R,5S)-5-[2-[(R)-1-hydroxyethyl]furo[3,2-b]imidazo[4,5-d]pyridin-1-yl]tetrahydropyran-2-yl]acetonitrile]
